Laboratory results published in patent US20150104868A1, “Methods of Maintaining and Improving Biological Cell Function and Activity” (GARGILL INCORPORATED, priority 2012, published 2015).

System: CRL 1730 HUVECs
Assay: Microarray transcriptomics of HUVEC (HGERT/HG, HG/NG)
Assay type: cell-based, human
[1] = Breast cancer, Cysteine/gluathione
[2] = Breast cancer, Heat shock protein
[3] = Breast cancer, ILK signaling (integrin linked kinase)
[4] = Breast cancer, Mitotic cell cycle
[5] = Breast cancer, One carbon metabolism
[6] = Breast cancer, Peptidase activity
[7] = Breast cancer, Plasminogen activators
[8] = Breast cancer, Reactive oxygen species
[9] = Breast cancer, Tyrosine phosphatase activity
[10] = HUVEC, 5 mM ERT + 30 mM glucose vs 30 mM glucose

For OC[C@@H](O)[C@@H](O)CO [ERT, meso-1,2,3,4-tetrahydroxybutane], the “HGERT/HG TRIT1 (TRNA isopentenyltransferase 1)” value (Breast cancer, ATP metabolism) was 0.98 Ω, the “HGERT/HG VPS4B (Vacuolar protein sorting 4 homolog B (S. cerevisiae))” value (Breast cancer, ATP metabolism) was 0.99 Ω and the “HGERT/HG YME1L1 (YME1-like 1 (S. cerevisiae))” value (Breast cancer, ATP metabolism) was 1.00 Ω. For the same molecule, the “HGERT/HG CORO1A (Coronin, actin binding protein, 1A)” value (Breast cancer, Actin binding) was 0.94 Ω, the “HGERT/HG PLEC1 (Plectin)” value (Breast cancer, Actin binding) was “Ψ 1.03” and the “HGERT/HG JUP (Junction plakoglobin)” value (Breast cancer, Alpha-catenin binding) was “Ψ 1.01”. The “HGERT/HG AHCYL1 (Adenosylhomocysteinase-like 1)” value [1] was “Ψ 1.01”, the “HGERT/HG ATIC (5-aminoimidazole-4-carboxamide ribonucleotide formyltransferase/IMP cyclohydroiase)” value [1] was 0.99 Ω and the “HGERT/HG ESD (Esterase D)” value [1] was 0.99 Ω. The “HGERT/HG DCK (Deoxycytidine kinase)” value (Breast cancer, Deoxycytidine metabolism) was 0.98 Ω, the “HGERT/HG COL4A6 (Collagen, type IV, alpha 6)” value (Breast cancer, Focal adhesion) was “Ψ 1.03” and the “HGERT/HG DNAJC8 (DnaJ (Hsp40) homolog, subfamily C, member 8)” value [2] was 0.99 Ω. For the same molecule, the “HGERT/HG DNAJC11 (DnaJ (Hsp40) homolog, subfamily C, member 11)” value [2] was “Ψ 1.01”, the “HGERT/HG ACTN1” value (Breast cancer, Hypoxia response) was 0.99 Ω and the “HGERT/HG ACTN1 (Actinin, alpha 1)” value [3] was “Ψ 1.01”. For the same molecule, the “HGERT/HG FBLIM1 (Flamin binding LIM protein 1)” value [3] was “Ψ 1.02”, the “HGERT/HG NCK2 (NCK adaptor protein 2)” value [3] was “Ψ 1.01” and the “HGERT/HG PXN (Paxillin)” value [3] was “Ψ 1.01”. The “HGERT/HG RHOB (Ras homolog gene family, member B)” value [3] was “Ψ 1.02”, the “HGERT/HG RHOJ (Ras homolog gene family, member J)” value [3] was “Ψ 1.02” and the “HGERT/HG RSU1 (Ras suppressor protein 1)” value [3] was 0.99 Ω. The “HGERT/HG VIM (Vimentin)” value [3] was 1.00 Ω, the “HGERT/HG ACTN1 (Actinin, alpha 1)” value (Breast cancer, Insulin binding) was “Ψ 1.01” and the “HGERT/HG FBLM1 (Filamin binding LIM protein 1)” value (Breast cancer, Insulin binding) was “Ψ 1.02”. For the same molecule, the “HGERT/HG NCK2 (NCK adaptor protein 2)” value (Breast cancer, Insulin binding) was “Ψ 1.01”, the “HGERT/HG PIK3R1 (Phosphoinositide-3 kinase, regulatory subunit 1 (alpha))” value (Breast cancer, Insulin binding) was “Ψ 1.03” and the “HGERT/HG PXN (Paxillin)” value (Breast cancer, Insulin binding) was “Ψ 1.01”. The “HGERT/HG RHOB (Ras homolog gene family, member B)” value (Breast cancer, Insulin binding) was “Ψ 1.02”, the “HGERT/HG RHOJ (Ras homolog gene family, member J)” value (Breast cancer, Insulin binding) was “Ψ 1.02” and the “HGERT/HG RSU1 (Ras suppressor protein 1)” value (Breast cancer, Insulin binding) was 0.99 Ω. The “HGERT/HG VIM (Vimentin)” value (Breast cancer, Insulin binding) was 1.00 Ω, the “HGERT/HG WDRG (WD repeat domain 6)” value (Breast cancer, Insulin binding) was “Ψ 1.02” and the “HGERT/HG AZI1 (S-azacytidine induced 1)” value [4] was “Ψ 1.02”. The “HGERT/HG CEP135 (Centrosomal protein 135kDa)” value [4] was “Ψ 1.01”, the “HGERT/HG CEP250 (Centrosomal protein 250kDa)” value [4] was 0.99 Ω and the “HGERT/HG FGFR1OP (FGFR1 oncogene partner)” value [4] was 0.99 Ω. The “HGERT/HG MPHOSPH6 (M-phase phosphoprotein G)” value [4] was 0.99 Ω, the “HGERT/HG UBA3 (Ubiquitin-like modifier activating enzyme 3)” value [4] was 0.99 Ω and the “HGERT/HG AHCYL1 (Adenosylhomocysteinase-like 1)” value [5] was “Ψ 1.01”. For the same molecule, the “HGERT/HG ATIC (5-aminoimdazole-4-carboxamide ribonucleotide formyltransferase/IMP cyclohydroiase)” value [5] was 0.99 Ω, the “HGERT/HG ESD (Esterase D)” value [5] was 0.99 Ω and the “HGERT/HG OSTM1 (Osteopetrosis associated transmembrane protein 1)” value (Breast cancer, Osteoclast differentiation) was 0.99 Ω. The “HGERT/HG CORO1A (Coronin, actin binding protein, 1A)” value (Breast cancer, PI3 kinase binding) was 0.94 Ω, the “HGERT/HG ATXN3 (Ataxin 3)” value [6] was 0.99 Ω and the “HGERT/HG OTUD5 (OTU domain containing 5)” value [6] was “Ψ 1.01”. The “HGERT/HG SENP3 (SUMO1/sentrin/SMT3 sepcific peptidase 3)” value [6] was “Ψ 1.01”, the “HGERT/HG WFDC12 (WAP four-disulfide core domain 12)” value [6] was 0.96 Ω and the “HGERT/HG BAD2 (Bromodomain containing 2)” value [7] was “Ψ 1.02”. The “HGERT/HG RHOJ (Ras homolog gene family, member J)” value [7] was “Ψ 1.02”, the “HGERT/HG COX8A (Cytochrome c oxidase subunit VIIIA (ubiquitous))” value [8] was 0.99 Ω and the “HGERT/HG JUP (Junction plankoglobin)” value [8] was “Ψ 1.01”. The “HGERT/HG MPHOSPH6 (M-phase phosphoprotein 6)” value [8] was 0.99 Ω, the “HGERT/HG SDHD (Succinate dehydrogenase complex, subunit D, integral membrane protein)” value [8] was 0.98 Ω and the “HGERT/HG SMOX (Spermine oxidase)” value [8] was 0.99 Ω. For the same molecule, the “HGERT/HG SOS1 (Son of sevenless homolog 1 (Drosophila))” value [8] was “Ψ 1.06”, the “HGERT/HG TCF12 (Transcription factor 12)” value [8] was 0.99 Ω and the “HGERT/HG TGM2 (Transglutaminase 2 (C polypeptide, protein-glutamine-gamma-glutamyltransferase))” value [8] was “Ψ 1.01”. For the same molecule, the “HGERT/HG PAQR3 (Progestin and adipoQ receptor family member III)” value (Breast cancer, Receptor activity) was 0.98 Ω, the “HGERT/HG EID2 (EP300 interacting inhibitor of differentiation 2)” value (Breast cancer, SMAD binding) was 0.99 Ω and the “HGERT/HG PGRMC2 (Progesterone receptor membrane component 2)” value (Breast cancer, Steroid hormone receptor activity) was 0.98 Ω. For the same molecule, the “HGERT/HG HS3ST1 (Heparan sulfate (glucosamine) 3-O-sulfotransferase 1)” value (Breast cancer, Sulfotransferase acfivity) was “Ψ 1.03”, the “HGERT/HG DUSP23 (Dual specificity phosphatase 23)” value [9] was 0.99 Ω and the “HGERT/HG PTPLAD1 (Protein tyrosine phosphatase-like A domain containing 1)” value [9] was “Ψ 1.01”. For the same molecule, the “transcriptomic changes, HG/NG vs HGERT/HG” value (HUVEC, HG conditions) was “reverses many of the transciptomic changes observed in its absence”, the “HGERT/HG transcript ABCB10” value [10] was 0.98 Ω and the “HGERT/HG transcript ACTL6A” value [10] was 0.98 Ω. The “HGERT/HG transcript ACTN1” value [10] was “Ψ 1.01”, the “HGERT/HG transcript ACTR5” value [10] was “Ψ 1.01” and the “HGERT/HG transcript AGTPBP1” value [10] was 0.98. For the same molecule, the “HGERT/HG transcript AHCYL1” value [10] was “Ψ 1.01”, the “HGERT/HG transcript ANKZF1” value [10] was 0.99 and the “HGERT/HG transcript ATAD1” value [10] was 0.99 Ω. The “HGERT/HG transcript ATAD3B” value [10] was “Ψ 1.01”, the “HGERT/HG transcript ATIC” value [10] was 0.99 Ω and the “HGERT/HG transcript ATP2C1” value [10] was 0.99 Ω. The “HGERT/HG transcript ATP5E” value [10] was 0.99 Ω, the “HGERT/HG transcript ATP5O” value [10] was 1.00 Ω and the “HGERT/HG transcript ATP13A1” value [10] was “Ψ 1.02”. For the same molecule, the “HGERT/HG transcript AZI1” value [10] was “Ψ 1.02”, the “HGERT/HG transcript BACE1” value [10] was “Ψ 1.02” and the “HGERT/HG transcript BBS10” value [10] was 0.98 Ω. For the same molecule, the “HGERT/HG transcript BRD2” value [10] was “Ψ 1.02”, the “HGERT/HG transcript Bcl2l12” value [10] was “Ψ 1.02” and the “HGERT/HG transcript C3orf26” value [10] was 0.99 Ω. The “HGERT/HG transcript C6orf66” value [10] was 0.99 Ω, the “HGERT/HG transcript C20orf7” value [10] was 0.99 Ω and the “HGERT/HG transcript CARS” value [10] was 1.00 Ω. The “HGERT/HG transcript CENPK” value [10] was 0.97 Ω, the “HGERT/HG transcript CEP135” value [10] was “Ψ 1.01” and the “HGERT/HG transcript CEP250” value [10] was 0.99. For the same molecule, the “HGERT/HG transcript CHMP7” value [10] was 0.99, the “HGERT/HG transcript CIB1” value [10] was 1.00 Ω and the “HGERT/HG transcript CKAPS” value [10] was “Ψ 1.01”. The “HGERT/HG transcript CNIH2” value [10] was 0.99, the “HGERT/HG transcript COG6” value [10] was 0.99 and the “HGERT/HG transcript COL4A6” value [10] was “Ψ 1.03”. For the same molecule, the “HGERT/HG transcript CORO1A” value [10] was 0.94 Ω, the “HGERT/HG transcript COX8A” value [10] was 0.99 Ω and the “HGERT/HG transcript CSNK1G1” value [10] was “Ψ 1.02”.
